Assay results as given in publication PMC6132687, “Stem cells are the most sensitive screening tool to identify toxicity of GATA4-targeted novel small-molecule compounds” (Archives of Toxicology, 2018).

Key:
cardiac function = system: cardiac function; design: method as in Kinnunen et al. [2018]; conditions: after myocardial infarction or angiotensin II-induced cardiac hypertrophy; ref Kinnunen et al. [2018]; cited from earlier work
[1] = system: GATA4–NKX2-5 transcriptional synergy; design: method as in Välimäki et al. [2017]; conditions: ref Välimäki et al. [2017]; cited from earlier work
[2] = system: extracellular signal-regulated kinase 1/2 signalling; design: method as in Ferreira et al. [2017]; conditions: systemic administration in heart-targeted nanoparticles; ref Ferreira et al. [2017]; cited from earlier work
[3] = system: primary neonatal rat ventricular cardiomyocytes (NRVCs); assay: MTT assay in NRVCs; format: cell-based; conditions: 24 h
Description: (§1) The cells were exposed to the test compounds for 24 h and cytotoxicity was quantified with MTT and LDH assays as described previously (Talman et al. [2011]). For the determination of cell membrane integrity, 50 µl of medium from each well was transferred onto a new 96-well plate followed by addition of 50 µl of substrate solution containing 1.3 mM β-nicotinamide adenine dinucleotide, 660 µM iodonitrotetrazolium, 54 mM L(+)-lactic acid, 280 µM phenazine methosulphate and 0.2 M Tris–HCl (pH 8.0). After a 30-min incubation, the reaction was stopped by adding 50 µl of 1 M acetic acid to each well and absorbance was measured at 490 nm using Victor2 plate reader (PerkinElmer, Turku, Finland). Spontaneous LDH release was measured from untreated cells, maximal LDH release from cells lysed with 0.9% Triton X-100 and background absorbance was measured from wells without cells. After background extraction, cytotoxicity was calculated as follows: cytotoxicity (%) = [(sample − spontaneous LDH release)/(maximal LDH release − spontaneous LDH release)] × 100. For quantification of metabolic activity, 3-(4,5-dimethylthiazol-2-yl)-2,5-diphenyltetrazolium bromide (MTT) was added to the cells at a final concentration of 0.5 mg/ml followed by 2 h incubation in cell culture conditions. […] Absorbance was measured at 550 nm and absorbance at 650 nm was subtracted as background. […]

MEFs = assay: MTT assay in MEFs; format: cell-based, mouse; conditions: 24 h, 30 µM, not statistically significant
Description: as §1

CCN(CC)c1ccc(NC(=O)c2c(-c3ccccc3)noc2C)cc1 [3i-1000]
cardiac function (cardiac function): improves cardiac function | GATA4-induced synergistic transactivation of a promoter sequence containing NKX2-5 binding sites [1]: inhibits | pro-hypertrophic ERK1/2 signalling in the hypoxic endocardial layer of the left ventricle [2]: inhibits

CCN(CC)c1ccc(NC(=O)c2c(C)noc2-c2cc(C)on2)cc1 [3i-1047]
increase in metabolic activity in NRVCs [3]: not observed

CCC(=O)N(Cc1ccc(N(CC)CC)cc1)c1c(-c2ccccc2)noc1C [3i-1120]
toxicity in MEFs (MEFs): modest toxicity
